Data as given in patent publication US7989165B2, “Tape stripping methods for analysis of skin disease and pathological skin state” (DermTech International, priority 2004, dated 2011).
Where “and” joins values, the source holds several entries; their conditions need not be identical. Identical values can stand only once. Marks after values point to notes of the source that are not given here.

Tests used:
[1] = system: IL-1β mRNA; experiment: Semi-quantitative RT-PCR of IL-1β mRNA relative to β-actin in SLS-occluded skin (tape and biopsy); assay type: in vivo, human
From the text: Clinical protocols: The study protocols were reviewed and approved by an independent IRB (BioMed IRB, San Diego) and all subjects signed informed consent. […] The bandages were made using a clear, non-porous plastic hypoallergenic adhesive tape. […] The sites were scored by a trained technician using the scale provided below. […] Abbott Laboratories). […] An area of uninvolved skin was tape harvested and shave biopsied in an identical manner. […] The following grading scale was used: 0, no visible reaction; 1, slight, pink, patchy erythema; 2, mild confluent, pink erythema; 3, moderate erythema (definite redness) with edema; 4, strong erythema (very intense redness) with edema. […] Patches were removed, scored and tape stripped as above. In a third study, two individuals were tape stripped on uninvolved skin on the upper back at three adjacent sites as above. RNA harvested in these last two studies was used in the DNA microarray experiments described below. Isolation of RNA: […] Extraction was performed using the manufacturer's directions and included a Proteinase K digestion, sonication of tapes and “on-column” DNase I digestion. […] Extraction of biopsies was performed with the same kit according to the manufacturer's instructions. Quantitative RT-PCR: 10 μl of RNA was reverse transcribed (RT) into cDNA with the Sensiscript Reverse Transcriptase kit and random hexamers in a final volume of […] according to the manufacturer's directions. […] All RT-reactions were amplified using 2 replicates and were negative (data not shown). Amplification and detection of specific mRNA: Specific mRNAs were converted to cDNA as described above. […] Amplification and detection assays were performed using TaqMan Pre-Developed Assay Reagents (PDAR; […] GAPDH mRNA assays were done in singleplex format. Thermal cycling conditions were: prior to cycling, two minutes at 50° C., then ten minutes at 95° C.; then 40 cycles at 95° C. for 15 seconds and 60° C. for 60 seconds. […] Semi-quantitation of mRNA using the ΔΔCt method: In this Example the comparative or ΔΔCt method of calculating relative gene expression levels between two samples, was used. In the ΔΔCt method the levels of IL-1β, IL-8 and GAPDH mRNAs are assayed semi-quantitatively by normalization to β-actin mRNA to create a ratio of (mRNAx)/(β-actin) mRNA for each RNA sample. This ratio is then further normalized to a control sample (a process called “calibration”; (Applied Biosystems 2001)). When comparing the ratio of mRNAx to β-actin mRNA between two different samples, it is implicitly assumed that the level of β-actin mRNA to total RNA is constant between the two samples (i.e. it is an unchanging housekeeping gene). […] The Ct values are the experimentally determined number of PCR cycles required to achieve a threshold fluorescence (statistically significant increase in fluorescence over background) for mRNAx and β-actin mRNA (Gibson, Heid et al. 1996; Heid, Stevens et al. 1996). Calculation of fold-increase and data analysis: Key to the method used to measure mRNA is the fact that the quantity of specific mRNA directly correlates with the number of cycles needed to reach threshold fluorescence, thus the fewer the number of cycles (the lower the Ct), the more mRNA is initially present. As described above, experimental data is reported as the number of cycles (Ct) required to reach a threshold fluorescence. […] The significance of ΔCt values (Tables I and IV) was determined by applying a two-sided, paired t-test. […]

[2] = system: gene expression levels in skin; experiment: DNA microarray (Affymetrix HG-U133A GeneChip) of tape-harvested RNA, untreated vs water vs SLS-occluded skin; assay type: in vivo, human; settings: threshold p=0.003, PPDE(p) 0.99
From the text: Clinical protocols: The study protocols were reviewed and approved by an independent IRB (BioMed IRB, San Diego) and all subjects signed informed consent. Ten healthy women, ages 21-55 were enrolled in the study. Regions of unblemished, normal appearing skin on the mid back were chosen for the application of 2 occlusive patches in the form of bandages approximately 4 cm×6.5 cm. The bandages were made using a clear, non-porous plastic hypoallergenic adhesive tape. In the center of this tape was a Webril (non-woven cotton) patch measuring approximately 2 cm×4.5 cm. One Webril patch contained 0.6 ml of 1% aqueous sodium lauryl sulfate and the other contained 0.6 ml of sterile water as the vehicle control. […] At 24 hours post application, the SLS and water patches were removed and the skin allowed to air dry for 15 minutes before scoring. The sites were scored by a trained technician using the scale provided below. Patched sites were large enough that two areas could be tape harvested without overlap and room left for a shave biopsy (˜2×2 mm). Skin sites were tape stripped with 4 tapes each and then a shave biopsy taken under local anesthetic (lidocaine HCl 1% and epinephrine 1:100,000; Abbott Laboratories). […] In a second study, 3 subjects had 3 patches containing 1% SLS and 3 water patches applied to the mid back for 24 hours: Patches were removed, scored and tape stripped as above. […]

[3] = SLS-occluded skin vs uninvolved skin

In the case of `CCCCCCCCCCCCOS(=O)(=O)[O-].[Na+]` [SLS, sodium lauryl sulfate], the “fold-change in IL-1β/β-actin mRNA ratio, Biopsy” value ([1]; SLS-occluded skin relative to uninvolved skin, biopsy samples, per subject, > = minimum estimate, sulfate) is reported as >15**^† fold and >3.3** fold and >8**^† fold and >34**^† fold and >11**^† fold and 56**^† fold and >53**^† fold and 2.2** fold and 1 fold and >28**^† fold, the “fold-change in IL-1β/β-actin mRNA ratio, Tape” value ([1]; SLS-occluded skin relative to uninvolved skin, tape samples, per subject, > = minimum estimate, sulfate) is reported as 18**^† fold and >0.44 fold and >8.1**^† fold and >1.9** fold and >5** fold and >1.4 fold and >7.3**^† fold and the “biopsy samples with significantly elevated IL-1β/β-actin mRNA ratio” value [1, 3] is reported as 9 of 10. For the same molecule, the “tape-harvested samples with significant increases in IL-1β/β-actin mRNA” value [1, 3] was 5 of 10, the “SLS-treated biopsy samples with significant increases in IL-1β/actin mRNA ratio calibrated to the water-treated site” value ([1]; of 10 biopsy samples) was 7 samples and the “number of genes differentially expressed, SLS vs water treated” value [2] was 1,364 genes.
